Assay results published in publication PMC3996911 (Molecular cell, 2014).

Assays:
PPK = PPK (Escherichia coli, UniProt P0A7B1)
PPX = target: T1, PPX (Escherichia coli, UniProt P0AFL6); assay: specific activity after incubation with N-chlorotaurine; format: biochemical; conditions: covalent (oxidation of Cys169 and, to a lesser extent, Cys85)
T1 sequence (P0AFL6 2-513): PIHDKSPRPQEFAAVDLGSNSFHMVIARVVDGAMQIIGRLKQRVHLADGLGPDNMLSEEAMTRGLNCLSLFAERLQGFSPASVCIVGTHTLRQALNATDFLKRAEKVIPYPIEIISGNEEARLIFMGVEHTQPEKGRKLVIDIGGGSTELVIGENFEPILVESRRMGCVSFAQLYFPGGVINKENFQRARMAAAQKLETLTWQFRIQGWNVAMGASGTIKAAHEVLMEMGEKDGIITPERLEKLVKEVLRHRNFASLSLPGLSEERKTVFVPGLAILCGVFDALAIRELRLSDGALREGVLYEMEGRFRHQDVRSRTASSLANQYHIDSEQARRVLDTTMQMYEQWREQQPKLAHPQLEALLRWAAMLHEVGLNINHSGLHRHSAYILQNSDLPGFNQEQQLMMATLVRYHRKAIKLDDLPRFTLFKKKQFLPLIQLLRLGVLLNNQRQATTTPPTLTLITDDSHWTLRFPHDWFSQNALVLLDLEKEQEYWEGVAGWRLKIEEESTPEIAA

Sequence of PPK (P0A7B1 2-688): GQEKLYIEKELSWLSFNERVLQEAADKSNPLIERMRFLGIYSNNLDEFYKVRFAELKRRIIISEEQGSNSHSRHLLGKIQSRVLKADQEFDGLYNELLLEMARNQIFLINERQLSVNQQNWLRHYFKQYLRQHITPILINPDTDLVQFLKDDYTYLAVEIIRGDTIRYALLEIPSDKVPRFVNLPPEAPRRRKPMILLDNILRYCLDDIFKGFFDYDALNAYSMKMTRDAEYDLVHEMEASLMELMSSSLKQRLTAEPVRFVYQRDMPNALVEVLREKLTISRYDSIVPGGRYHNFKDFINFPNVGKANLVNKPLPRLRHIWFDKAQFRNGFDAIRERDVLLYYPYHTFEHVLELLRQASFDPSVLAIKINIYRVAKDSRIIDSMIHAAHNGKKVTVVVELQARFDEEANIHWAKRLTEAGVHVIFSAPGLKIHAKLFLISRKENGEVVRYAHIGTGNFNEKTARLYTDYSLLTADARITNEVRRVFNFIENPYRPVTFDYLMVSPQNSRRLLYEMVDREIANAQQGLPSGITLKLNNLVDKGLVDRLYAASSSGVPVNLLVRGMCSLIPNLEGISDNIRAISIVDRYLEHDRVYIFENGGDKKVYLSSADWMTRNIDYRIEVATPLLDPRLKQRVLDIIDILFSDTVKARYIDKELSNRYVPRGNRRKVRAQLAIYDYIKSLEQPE

Structure (SMILES)	specific activity, forward reaction (polyP synthesis) (PPK)	specific activity after incubation with N-chlorotaurine (PPX)
Nc1ncnc2c1ncn2[C@@H]1O[C@H](COP(=O)(O)OP(=O)(O)OP(=O)(O)O)[C@@H](O)[C@H]1O [ATP]	Specific activity of PPK’s forward and reverse reactions (see Figure 1C)	
O=S(=O)(O)CCNCl [N-chlorotaurine]		Purified PPX proved to be highly sensitive to inactivation by N-chlorotaurine
